Laboratory results: the Deep4Chem optical property database

Test: solvent given as SMILES

Structure (SMILES)	absorption maximum (in CC#N) [nm]	absorption maximum (in Cc1ccccc1) [nm]	absorption maximum (in ClC(Cl)Cl) [nm]	absorption maximum (in ClCCl) [nm]	absorption maximum (in CO) [nm]	absorption maximum (in C1CCOC1) [nm]	other results
Nc1ccc2c(-c3ccc(C(=O)CN4C(=O)CCC4=O)cc3C(=O)[O-])c3ccc(=[NH2+])c(S(=O)(=O)[O-])c-3oc2c1S(=O)(=O)[O-]	–	–	–	–	–	–	absorption maximum (in O): 494 nm
O=c1[nH]c2[n+](c3ccccc13)[B-](F)(F)Oc1ccccc1-2	343	354	–	–	–	–	–
COc1ccc(C2=c3sc(-c4ccc(OC)cc4)cc3=[N+]3C2=Nc2c(-c4ccc(OC)cc4)c4sc(-c5ccc(OC)cc5)cc4n2[B-]3(F)F)cc1	–	–	788	–	–	–	–
COc1ccc(C#Cc2ccc(C#N)cc2)cc1OC	325	–	329	331	–	–	absorption maximum (in C1COCCO1): 326 nm; absorption maximum (in CCCCCC): 343 nm; absorption maximum (in CCCCCCC): 344 nm; absorption maximum (in CCCO): 329 nm; absorption maximum (in CCOC(C)=O): 326 nm; absorption maximum (in CS(C)=O): 334 nm
O=c1[nH]c(=O)c2scc([C@H]3C[C@H](O)[C@@H](CO)O3)c2[nH]1	296	–	–	–	294	–	absorption maximum (in CCOC(C)=O): 296 nm; absorption maximum (in O): 294 nm
CCCCC1=Cc2c3ccc4cccc5ccc(c6cc(-c7ccccc7)n(c26)P1(=O)c1ccccc1)c3c45 (configuration not stated)	426	433	431	430	426	430	absorption maximum (in C1CCCCC1): 430 nm; absorption maximum (in C1COCCO1): 430 nm; absorption maximum (in CC(C)=O): 427 nm
CCCCCCN1C(=O)c2cccc3c(-c4ccc(-c5cc(-c6ccc(C)cc6)n(-c6ccccc6)n5)s4)ccc(c23)C1=O	–	–	–	402	–	–	–
CCCCCCCCCCCCCCOc1ccc(C#Cc2cc3nc4c(OCCCCCCCCCCCC)cc5c6cc(OCCCCCCCCCCCC)c(OCCCCCCCCCCCC)cc6c6cc(OCCCCCCCCCCCC)c(OCCCCCCCCCCCC)cc6c5c4nc3cc2C#Cc2ccc(OCCCCCCCCCCCCCC)cc2)cc1	–	–	486	–	–	–	–
CC(C)[Si](C#Cc1c2cc3ccccc3cc2c(C#C[Si](C(C)C)(C(C)C)C(C)C)c2nc3cc4c(cc3nc12)C1c2ccccc2C4c2ccccc21)(C(C)C)C(C)C	–	–	–	683	–	–	absorption maximum (in CCCCCC): 675 nm
O=[N+]([O-])c1ccc(-c2nc3c(c4c2-c2ccccc2CC4)-c2ccccc2CC3)cc1	345	351	–	353	334	350	absorption maximum (in CCCCCC): 339 nm; absorption maximum (in CCOC(C)=O): 339 nm; absorption maximum (in CS(C)=O): 352 nm
Cc1ccc(/C(C#N)=C/c2cc(/C=C(\C#N)c3ccc(C)cc3)c(-c3ccc(N(c4ccccc4)c4ccccc4)cc3)cc2-c2ccc(N(c3ccccc3)c3ccccc3)cc2)cc1	–	391	385	393	–	391	absorption maximum (in C1CCCCC1): 385 nm; absorption maximum (in CCCCCC): 385 nm; absorption maximum (in CCOC(C)=O): 393 nm
CC1=C(Cc2ccccc2)C(C)=[N+]2C1=C(C)c1c(C)c(-c3csc(N4CCOCC4)n3)c(C)n1[B-]2(F)F	517	527	523	522	514	525	absorption maximum (in C1COCCO1): 524 nm; absorption maximum (in CC(C)O): 518 nm; absorption maximum (in CCO): 516 nm; absorption maximum (in CCOC(C)=O): 523 nm; absorption maximum (in CN(C)C=O): 526 nm; absorption maximum (in CS(C)=O): 522 nm
N#Cc1c(N2CCCCC2)cc(-c2cccc3ccccc23)c2c1C(=O)c1ccccc1-2	–	–	–	–	–	344	–
CC(C)[Si](C#Cc1ccc(C#C[Si](C(C)C)(C(C)C)C(C)C)c2nc3c(nc12)Cc1ccccc1-3)(C(C)C)C(C)C	–	–	–	–	–	–	absorption maximum (in CCCCCC): 369 nm
N#Cc1ccc(-c2nc(-c3ccccc3)c(-c3ccccc3)[nH]2)cc1	–	–	–	–	339	–	–
CCc1c(C)c2n(c1C)[B-](F)(F)[N+]1=C(C=C3c4ccccc4-c4ccccc43)C=CC1=C2C	–	–	–	–	–	–	absorption maximum (in C1CCCCC1): 589 nm
Cc1ccc(C(=O)/C=C/c2ccc(N(C)C)cc2)cc1	411	404	412	–	419	404	absorption maximum (in CC(=O)O): 427 nm; absorption maximum (in CC(C)=O): 405 nm; absorption maximum (in CCO): 422 nm; absorption maximum (in CN(C)C=O): 419 nm; absorption maximum (in c1ccccc1): 404 nm
CC[Si](C#Cc1c2c(=O)c3ccccc3c2c(C#C[Si](CC)(CC)CC)c2c(=O)c3ccccc3c12)(CC)CC	–	–	522	–	–	–	–
